The values that follow come from patent US20110311591A1, “Antimicrobial Coating” (SHEFFIELD HALLAM UNIVERSITY, priority 2008, published 2011).

Type in all cases: cell-based
In assay [1] the test system is Staphylococcus aureus. Nature of the assay: Growth on agar/gentamicin plate (resistance check). The settings on record: 50 μg per ml. How it is done: (§1) Each of the bacterium where grown on a nutrient agar plate and an agar/gentamicin plate at a concentration of 50 μg per ml. This ensured the bacterial strains used where not resistant to gentamicin. One colony from the bacteria agar plate was used to inoculate a sterilized L-broth of 1% tryptone, 0.5% yeast extract, 0.5% NaCl, 0.2% glucose and left over night in a shaking incubator at 37° C.

Assay [2] has as its system coagulase negative Staphylococcus epidermis. As to the kind of experiment: Growth on agar/gentamicin plate (resistance check). Conditions: 50 μg per ml. The protocol: as §1
For assay [3], the system named is Escherichia coli (W3110, k 12 mutant). As to the kind of experiment: Growth on agar/gentamicin plate (resistance check). The settings on record: 50 μg per ml. The protocol: as §1
Assay [4] concerns bacteria. Nature of the assay: Viable count on high temperature (80° C.) dried coating. The settings on record: coat dried at 80° C. How it is done:
The substrate was a standard glass microscope slide sterilized in an autoclave. Three different coatings were tested i) a pure sol-gel coating was used for a control, ii) a 5 mg/ml gentamicin solution mixed with sol-gel to form a 50 μg/ml coating (50 ppm) and a iii) 12.5 mg/ml concentration of gentamicin was made from gentamicin sulphate dissolved directly in the sol-gel to provide a 1.25% gentamicin sol-gel coating. Each coating was applied over the microscope slide using 200 μl of coating per plate, covered in one single coat and left for 24 hrs at room temperature to allow the coat to cure. Four plates were dried at 80° C. for 1 hr achieving a harder coat to determine if the gentamicin coat was still active after high temperature treatment.
To infect the plates with bacteria, a “sloppy agar” was made up from 0.7 g of nutrient agar dissolved in 100 ml of Phosphate buffer saline (PBS) and autoclaved forming a jelly like consistency. After melting, 5 ml of a inoculate L-broth was pipetted in to 100 ml of sloppy agar and mixed with 500 μl of this inoculated agar to be pipetted on to a coated plate forming a drop sitting on top of the coat. The plate was then laid flat into a Petri dish which was then placed in to a sealed, airtight, container with damp tissue paper to keep the sloppy agar in a moist environment to prevent drying out. […]

As for gentamicin, the susceptibility to gentamicin entry in assay [1], in assay [2] and in assay [3] was “susceptible” in each case. In addition, the “gentamicin activity and release after high temperature drying of the coat” value in assay [4] is “still active and released”.
